Test results reported in ChEMBL document CHEMBL4765277, “Design, synthesis and biological evaluation of novel indazole-based derivatives as potent HDAC inhibitors via fragment-based virtual screening” (Eur J Med Chem, 2020).
Calls of active or inactive are those of the source. No cut-off for these calls is given here.

Experiments:
HCT-116 [1] = test: Induction of apoptosis in human HCT-116 cells assessed as early apoptotic cells at 3 uM after 24 hrs by Annexin V-FITC/PI staining based flow cytometric analysis (reference value: 4.01%); format: functional
HCT-116 [2] = test: Induction of apoptosis in human HCT-116 cells assessed as necrotic cells at 10 uM after 24 hrs by Annexin V-FITC/PI staining based flow cytometric analysis (reference value: 0.51%); format: functional
HCT-116 [3] = test: Antiproliferative activity against human HCT-116 cells assessed as reduction in cell viability after 72 hrs by MTT assay; format: functional, cell-based; conditions: HCT-116, 72 h
HCT-116 [4] = test: Induction of apoptosis in human HCT-116 cells assessed as late apoptotic cells at 10 uM after 24 hrs by Annexin V-FITC/PI staining based flow cytometric analysis (reference value: 5.14%); format: functional
Histone deacetylase 1 = Histone deacetylase 1 (Homo sapiens, UniProt Q13547); test: Inhibition of recombinant human C-terminal His/FLAG-tagged HDAC1 (1 to end residues) expressed in sf9 insect cells using Boc-Lys(Ac)-AMC as substrate incubated for 60 mins by fluorescence assay
Histone deacetylase 8 = molecular target: T1, Histone deacetylase 8 (Homo sapiens, UniProt Q9BY41); test: Inhibition of recombinant human full length C-terminal His-tagged HDAC8 expressed in sf9 insect cells using Boc-Lys(TFA)-AM as substrate incubated for 60 mins by fluorescence assay
T1 sequence (Q9BY41 whole entry): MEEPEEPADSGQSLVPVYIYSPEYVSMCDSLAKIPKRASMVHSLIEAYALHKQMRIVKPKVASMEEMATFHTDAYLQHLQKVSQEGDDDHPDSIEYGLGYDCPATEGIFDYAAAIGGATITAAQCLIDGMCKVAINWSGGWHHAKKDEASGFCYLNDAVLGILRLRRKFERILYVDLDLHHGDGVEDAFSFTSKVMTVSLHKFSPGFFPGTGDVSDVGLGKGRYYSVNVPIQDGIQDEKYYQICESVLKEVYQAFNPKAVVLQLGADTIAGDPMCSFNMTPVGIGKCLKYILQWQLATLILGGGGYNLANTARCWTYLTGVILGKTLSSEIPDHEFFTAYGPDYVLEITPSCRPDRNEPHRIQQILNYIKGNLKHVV

HCT-116 [5] = test: Induction of apoptosis in human HCT-116 cells assessed as necrotic cells at 3 uM after 24 hrs by Annexin V-FITC/PI staining based flow cytometric analysis (reference value: 0.51%); format: functional
HCT-116 [6] = test: Induction of apoptosis in human HCT-116 cells after 24 hrs by Annexin V-FITC/PI staining based flow cytometric analysis; format: functional, cell-based
HCT-116 [7] = test: Induction of apoptosis in human HCT-116 cells assessed as viable cells at 1 uM after 24 hrs by Annexin V-FITC/PI staining based flow cytometric analysis (reference value: 90.34%); format: functional; conditions: Homo sapiens, HCT-116, read-out: Activity
HCT-116 [8] = test: Induction of cell cycle arrest in human HCT116 cells assessed as cell accumulation at G0/G1 phase at 3 uM after 24 hrs by Rnase/PI staining based flow cytometric analysis (reference value: 48.4%); format: functional
HCT-116 [9] = test: Induction of cell cycle arrest in human HCT116 cells assessed as cell accumulation at S phase at 3 uM after 24 hrs by Rnase/PI staining based flow cytometric analysis (reference value: 25.2%); format: functional
MCF7 = test: cells; conditions: Homo sapiens, MCF7, 72 h
Description: Antiproliferative activity against human MCF7 cells assessed as reduction in cell viability after 72 hrs by MTT assay

HCT-116 [10] = test: Induction of apoptosis in human HCT-116 cells assessed as early apoptotic cells at 10 uM after 24 hrs by Annexin V-FITC/PI staining based flow cytometric analysis (reference value: 4.01%); format: functional
HCT-116 [11] = test: Inhibition of HDAC in human HCT-116 cells assessed as up regulation of acetylated tubulin protein expression at 1.25 to 10 uM after 8 hrs by Western blot analysis; format: cell-based; conditions: dose 1.25-10 µM
HCT-116 [12] = test: Induction of apoptosis in human HCT-116 cells assessed as viable cells at 10 uM after 24 hrs by Annexin V-FITC/PI staining based flow cytometric analysis (reference value: 90.34%); format: functional; conditions: read-out: Activity
HCT-116 [13] = test: Induction of apoptosis in human HCT-116 cells assessed as late apoptotic cells at 3 uM after 24 hrs by Annexin V-FITC/PI staining based flow cytometric analysis (reference value: 5.14%); format: functional
HCT-116 [14] = test: Inhibition of HDAC in human HCT-116 cells assessed as up regulation of acetylated histone H3 protein expression at 1.25 to 10 uM after 8 hrs by Western blot analysis; format: cell-based; conditions: dose 1.25-10 µM
Histone deacetylase 2 = Histone deacetylase 2 (Homo sapiens, UniProt Q92769); test: Inhibition of recombinant human C-terminal His-tagged HDAC2 (1 to end residues) expressed in sf9 insect cells using Boc-Lys(Ac)-AMC as substrate incubated for 60 mins by fluorescence assay
HCT-116 [15] = test: Induction of cell cycle arrest in human HCT116 cells assessed as cell accumulation at G2/M phase at 3 uM after 24 hrs by Rnase/PI staining based flow cytometric analysis (reference value: 26.4%); format: functional
HCT-116 [16] = test: Induction of apoptosis in human HCT-116 cells assessed as early apoptotic cells at 1 uM after 24 hrs by Annexin V-FITC/PI staining based flow cytometric analysis (reference value: 4.01%); format: functional
HCT-116 [17] = test: Induction of apoptosis in human HCT-116 cells assessed as viable cells at 3 uM after 24 hrs by Annexin V-FITC/PI staining based flow cytometric analysis (reference value: 90.34%); format: functional; conditions: Homo sapiens, HCT-116, read-out: Activity
HCT-116 [18] = test: Induction of apoptosis in human HCT-116 cells assessed as necrotic cells at 1 uM after 24 hrs by Annexin V-FITC/PI staining based flow cytometric analysis (reference value: 0.51%); format: functional
HCT-116 [19] = test: Induction of apoptosis in human HCT-116 cells assessed as late apoptotic cells at 1 uM after 24 hrs by Annexin V-FITC/PI staining based flow cytometric analysis (reference value: 5.14%); format: functional
HeLa = test: cells; format: functional, cell-based; conditions: Homo sapiens, 72 h
Description: Antiproliferative activity against human HeLa cells assessed as reduction in cell viability after 72 hrs by MTT assay

Sequence of Histone deacetylase 1 (Q13547 whole entry): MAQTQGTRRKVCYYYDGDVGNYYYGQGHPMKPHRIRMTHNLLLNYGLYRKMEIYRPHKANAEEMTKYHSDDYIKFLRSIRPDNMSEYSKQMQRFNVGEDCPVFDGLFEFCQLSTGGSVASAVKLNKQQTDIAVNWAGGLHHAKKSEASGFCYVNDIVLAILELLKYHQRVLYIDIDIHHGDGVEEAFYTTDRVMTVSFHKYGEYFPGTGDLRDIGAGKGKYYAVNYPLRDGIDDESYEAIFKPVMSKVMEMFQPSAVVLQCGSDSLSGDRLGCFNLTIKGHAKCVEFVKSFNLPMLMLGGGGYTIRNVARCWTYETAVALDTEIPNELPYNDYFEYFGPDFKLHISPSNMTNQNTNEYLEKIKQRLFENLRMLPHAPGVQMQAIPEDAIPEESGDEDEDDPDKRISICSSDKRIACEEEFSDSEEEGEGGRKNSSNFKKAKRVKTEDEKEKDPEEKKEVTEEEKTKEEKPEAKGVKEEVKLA
Sequence of Histone deacetylase 2 (Q92769 whole entry): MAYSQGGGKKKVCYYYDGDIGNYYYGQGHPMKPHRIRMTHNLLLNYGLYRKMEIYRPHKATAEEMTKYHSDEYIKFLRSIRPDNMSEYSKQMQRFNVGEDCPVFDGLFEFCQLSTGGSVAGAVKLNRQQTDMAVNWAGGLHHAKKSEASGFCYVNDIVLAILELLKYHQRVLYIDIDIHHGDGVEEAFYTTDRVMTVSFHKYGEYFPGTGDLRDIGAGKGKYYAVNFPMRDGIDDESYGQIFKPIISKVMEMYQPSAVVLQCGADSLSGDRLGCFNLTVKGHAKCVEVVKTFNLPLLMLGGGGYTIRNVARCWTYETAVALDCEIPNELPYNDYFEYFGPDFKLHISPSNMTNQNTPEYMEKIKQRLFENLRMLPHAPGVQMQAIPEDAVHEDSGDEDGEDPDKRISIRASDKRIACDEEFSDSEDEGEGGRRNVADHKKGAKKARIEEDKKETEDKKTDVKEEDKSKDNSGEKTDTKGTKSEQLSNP

IC50 (HCT-116 [3]): 2100 nM
IC50 (Histone deacetylase 1): 2.7 nM
IC50 (Histone deacetylase 8): 3.6 nM
IC50 (MCF7): 900 nM
IC50 (Histone deacetylase 2): 4.2 nM
IC50 (HeLa): 4400 nM
SMILES: COc1ccc(-c2ccc3c(NC(=O)CCCCCCC(=O)NO)n[nH]c3c2)cc1
Activity (HCT-116 [1]): 13.72%
Activity (HCT-116 [2]): 1.19%
Activity (HCT-116 [4]): 62.58%
Activity (HCT-116 [5]): 0.33%
Activity (HCT-116 [6]): Dose-dependent effect
viability at 1 µM (HCT-116 [7]): 42.4%
Activity (HCT-116 [8]): 29.8%
Activity (HCT-116 [9]): 26.9%
Activity (HCT-116 [10]): 15.64%
inhibition (HCT-116 [11]): Active
viability at 10 µM (HCT-116 [12]): 20.6%
Activity (HCT-116 [13]): 54.58%
inhibition (HCT-116 [14]): Active
Activity (HCT-116 [15]): 43.3%
Activity (HCT-116 [16]): 17.34%
viability at 3 µM (HCT-116 [17]): 31.4%
Activity (HCT-116 [18]): 0.27%
Activity (HCT-116 [19]): 40.02%
